Assay results taken from patent US20240366813A1, “PEPTIDE-UREA DERIVATIVE, PHARMACEUTICAL COMPOSITION CONTAINING SAME AND APPLICATION THEREOF” (Bivision Pharmaceuticals, Inc., priority 0001, published 2024).
Values belong to the compound of their own block, whether it stands above or below them.

How the values were obtained:
22rv1 xenograft tumor = test: Pharmacodynamic study in 22rv1 mouse xenograft tumor model (effect example 11); assay type: in vivo, mice; conditions: for TGITV (relative tumor inhibition rate): Day 19; for Tumor volume, Administration in groups Day 19: mean ± standard error
[1] = system: PSMA-positive (22RV1) tumor; test: Specificity test, PET/CT in PSMA-positive (22RV1) tumor-bearing mice with and without PMPA; assay type: in vivo; conditions: ^68Ga-E3 co-injected with PMPA (2 mg/Kg), FIG. 4
Method: The ^68Ga-E3 radiolabeled compound was injected into the tail vein of PSMA-positive (22RV1) tumor-bearing mice (Jiangsu Huajing Molecular Imaging and Drug Research Institute Co., Ltd.) (about 7.4 MBq/mouse, specific activity: 22423.82 KBq/μg) ([…]). After administration, PET/CT was used for 1 h dynamic scanning, medium resolution whole body CT, and 10 min static scanning at 2 h and 3 h. It can be clearly seen from FIG. 3 that the drug is rapidly distributed into the animal body after administration, and the drug is rapidly metabolized by the kidneys and excreted from the body over time.
The next day, the mixture of ^68Ga-E3 and PSMA standard PMPA (2 mg/Kg) was injected into the tail vein of PSMA-positive tumor-bearing mice (about 7.4 MBq/mouse, specific activity: 22423.82 KBq/μg) (50 uCi). After administration, PET/CT was used for 1 h dynamic scanning, medium resolution whole body CT, and 10 min static scanning at 2 h and 3 h. The results are depicted in detailed in FIG. 4.
PMPA is a specific inhibitor of PSMA. When PMPA is administered together with ^68Ga-E3, ^68Ga-E3 and PMPA are rapidly distributed to various organs in the animal body. However, PMPA occupies the PSMA target on the tumor, thus preventing the binding of ^68Ga-E3 to PSMA on the tumor.

PSMA protein = PSMA protein (Homo sapiens (Human), UniProt Q04609); test: In vitro binding test of compound and PSMA protein (Biacore); conditions: Biacore 8K, 15° C., 1:1 binding model, KD in M; for Kd: read-out: pkD (pKD=−Log KD, binding affinity to PSMA protein) (converted)
Sequence of PSMA protein (Q04609 whole entry): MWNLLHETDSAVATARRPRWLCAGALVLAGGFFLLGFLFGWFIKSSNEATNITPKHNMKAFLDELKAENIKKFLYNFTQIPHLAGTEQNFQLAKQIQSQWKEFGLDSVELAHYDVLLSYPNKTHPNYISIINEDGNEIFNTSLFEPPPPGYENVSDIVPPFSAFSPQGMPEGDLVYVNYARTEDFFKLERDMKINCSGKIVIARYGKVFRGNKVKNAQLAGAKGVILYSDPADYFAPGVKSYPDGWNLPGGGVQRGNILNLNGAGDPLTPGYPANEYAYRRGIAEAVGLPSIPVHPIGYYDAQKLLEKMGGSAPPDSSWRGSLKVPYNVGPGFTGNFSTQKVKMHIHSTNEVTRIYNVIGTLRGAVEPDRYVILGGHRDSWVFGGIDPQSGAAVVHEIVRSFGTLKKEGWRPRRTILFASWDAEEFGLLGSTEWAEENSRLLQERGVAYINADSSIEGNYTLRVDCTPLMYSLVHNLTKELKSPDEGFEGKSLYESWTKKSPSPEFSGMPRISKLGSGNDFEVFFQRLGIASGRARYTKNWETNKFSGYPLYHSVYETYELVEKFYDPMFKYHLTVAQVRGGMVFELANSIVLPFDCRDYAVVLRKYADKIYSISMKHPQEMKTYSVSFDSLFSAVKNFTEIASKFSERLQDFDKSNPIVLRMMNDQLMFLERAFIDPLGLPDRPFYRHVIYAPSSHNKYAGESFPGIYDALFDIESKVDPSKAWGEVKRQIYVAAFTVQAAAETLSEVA
Method: A Biacore 8K (Cytiva) instrument was used to determine the binding affinity of disclosed compounds to the PSMA protein (Sinobiological). The PSMA protein was captured on SA chips. Before immobilizing the disclosed compounds (flow path 1 and 2, flow rate 10 μL/min), the PSMA protein was immobilized on flow path 2 by using flow buffer (10 μg/ml, flow rate 5 μL/min, injection time 600 s), and 1M NaCl was injected three times consecutively into 50 mM NaOH to condition the sensor surface. After each disclosed compounds injection, isopropanol in 1M NaCl and 50 mM NaOH was used for additional washing (flow path 1, 2, flow rate 10 μL/min, injection time 60 s).
All compounds were dissolved in 100% DMSO and diluted to 10 mM, and then diluted in test buffer (PBS, pH 7.4, 1 mM TCEP ([…]), 0.05% P20, 2% dimethyl sulfoxide) at an appropriate highest concentration. Analytes were run using the following conditions: 15° C. analysis temperature, analysis steps=all set to LMW kinetics; cycle type=single cycle (90 s contact time, 1800 s separation time, 30 ul/min flow rate, channels 1, 2); channel detection=2-1). Data were evaluated using Biacore Insight evaluation software, and data were fit to a 1:1 binding model.
Biacore results are shown in Table 12: pKD=−Log KD, where KD is the binding affinity of the compounds to PSMA protein measured by Biacore. KD is expressed by KD (M)=Kd (1/s)/Ka (1/Ms).

plasma protein = test: Determination of plasma protein binding (PPB); assay type: in vitro ADME; conditions: ^177Lu-labeled, 37° C., 10 min, ultrafiltration, FIG. 6
Method: Three EP tubes were taken, and 0.2 mL of plasma and 50 μL of ^177Lu-labeled compound were added to each tube. The mixture was incubated in a thermostat at 37° C. for 10 min, and then taken out and added to ultrafiltration tubes, respectively. The ultrafiltration tubes were centrifuged at 13,000 rpm for 45 min. 50 μL of normal saline was then added, and the mixture was centrifuged for another 15 minutes. The radioactive counts per minute of each tube casing and filtrate were then measured. PPB was calculated, and the mean of 3 tubes was recorded. PPB=[(supernatant counts-background counts)]/(subnatant counts+supernatant counts−2*background counts)]*100.

LNCAP cells = test: Cell binding test on LNCAP cells; assay type: cell-based; conditions: ^177Lu-labeled, on ice 2 hours, FIG. 1
Method: LNCAP cells in the logarithmic growth phase (Obio Technology (Shanghai) Corp., Ltd.) were made into a cell suspension. The cell suspension was adjusted to a cell density of 2×10^5/ml and inoculated 1 mL into a 24-well cell culture plate. Cells were incubated in an incubator at 37° C. for 48 hours. Three hours before the test, the medium was replaced with serum-free RPMI1640 medium (NEWZERUM), the cell culture medium was aspirated, and the cells were washed once with PBS. Serum-free RPMI1640 medium was used to prepare ^177Lu-E series compounds at concentrations of 32, 16, 8, 4, 1, 0.5, 0.1, 0.02, 0.01, 0.002 uCi/mL. The original medium was discarded, and then 1 mL of the prepared solution containing ^177Lu-E series compounds was added to each well. The plate was placed on ice for 2 hours, and then the cells were washed three times with 0.5 mL of ice-cold PBS. The washing solution was aspirated, and the cells were lysed with 0.5 mL of 1M NaOH and washed twice with 0.5 mL of PBS, and the sodium hydroxide (0.5 mL) and PBS (0.5 mL×2) solutions were collected. The uptake counts were determined.

[2] = Determination of Log P (n-octanol/water); assay type: physicochemical; conditions: room temperature, FIG. 5
Method: Three EP tubes were taken, and 0.5 mL of saturated n-octanol and 480 μL of ultrapure water were added into each EP tube. 20 μL (about 1 MBq) solution of E series compounds and reference compound were then added respectively. The mixture was shaken evenly and then centrifuged at room temperature (2000 r/min, 5 min, centrifugal radius: 10 cm). 100 μL was taken from the lipid layer and aqueous layer of each tube, and the radioactive counts per minute of the two phases were measured. The Log P value was calculated and the results were averaged.

[3] = 300 μCi of ^177Lu-labeled test sample
[4] = 600 μCi of ^177Lu-labeled test sample

SMILES: O=C(O)CC[C@H](NC(=O)NC(CCCCNC(=O)[C@H](Cc1ccc2ccccc2c1)NC(=O)c1ccc2c(c1)CCN(C(=O)CN1CCN(CC(=O)O)CCN(CC(=O)O)CCN(CC(=O)O)CC1)C2)C(=O)O)C(=O)O (stereo partly shown) [Compound E3]
TGITV (relative tumor inhibition rate) (22rv1 xenograft tumor; [3]): 71.00% | Tumor volume, Administration in groups Day 19 (22rv1 xenograft tumor; [3]): 590.66 ± 103.97 mm^3 | TGITV (relative tumor inhibition rate) (22rv1 xenograft tumor; [4]): 80.42% | Tumor volume, Administration in groups Day 19 (22rv1 xenograft tumor; [4]): 447.12 ± 47.84 mm^3 | specificity against PSMA [1]: high specificity | pkD (pKD=−Log KD, binding affinity to PSMA protein) (PSMA protein): 9.26 | PPB binding rate (plasma protein): extremely high

Kd (PSMA protein): 0.00204 nM
SMILES: O=C(O)CC[C@H](NC(=O)N[C@@H](CCCCNC(=O)[C@H](Cc1ccc2ccccc2c1)NC(=O)[C@H]1CC[C@H](CNC(=O)CN2CCN(CC(=O)O)CCN(CC(=O)O)CCN(CC(=O)O)CC2)CC1)C(=O)O)C(=O)O [PSMA-617, reference compound]
TGITV (relative tumor inhibition rate) (22rv1 xenograft tumor; [3]): 15.49% | Tumor volume, Administration in groups Day 19 (22rv1 xenograft tumor; [3]): 1,480.09 ± 446.83 mm^3 | TGITV (relative tumor inhibition rate) (22rv1 xenograft tumor; [4]): 21.18% | Tumor volume, Administration in groups Day 19 (22rv1 xenograft tumor; [4]): 1,389.81 ± 598.96 mm^3

pkD (pKD=−Log KD, binding affinity to PSMA protein) (PSMA protein): 9.44 | lipophilicity (Log P) compared with the reference compound PSMA-617 [2]: better lipophilicity
SMILES: O=C(O)CC[C@H](NC(=O)N[C@@H](CCCCNC(=O)[C@H](Cc1ccc2ccccc2c1)NC(=O)C1CCC(NC(=O)CN2CCN(CC(=O)O)CCN(CC(=O)O)CCN(CC(=O)O)CC2)CC1)C(=O)O)C(=O)O (stereo partly shown) [Compound E26]
cell binding ability (LNCAP cells): excellent cell binding ability

Kd (PSMA protein): 0.269 nM
SMILES: O=C(O)CC[C@H](NC(=O)N[C@@H](CCCCNC(=O)[C@H](Cc1ccc2ccccc2c1)NC(=O)c1ccc2c(c1)CN(C(=O)CN1CCN(CC(=O)O)CCN(CC(=O)O)CCN(CC(=O)O)CC1)CC2)C(=O)O)C(=O)O [Compound E4]

pkD (pKD=−Log KD, binding affinity to PSMA protein) (PSMA protein): 9.49
SMILES: O=C(O)CC[C@H](NC(=O)N[C@@H](CCCCNC(=O)[C@H](Cc1ccc2ccccc2c1)NC(=O)C1C2CN(C(=O)CN3CCN(CC(=O)O)CCN(CC(=O)O)CCN(CC(=O)O)CC3)CC21)C(=O)O)C(=O)O (stereo partly shown) [Compound E8]

pkD (pKD=−Log KD, binding affinity to PSMA protein) (PSMA protein): 10.15
SMILES: O=C(O)CC[C@H](NC(=O)N[C@@H](CCCCNC(=O)[C@H](Cc1ccc2ccccc2c1)NC(=O)c1cnc2cc(NC(=O)CN3CCN(CC(=O)O)CCN(CC(=O)O)CCN(CC(=O)O)CC3)ccc2c1)C(=O)O)C(=O)O [Compound E25]

Kd (PSMA protein): 0.229 nM
SMILES: O=C(O)CC[C@H](NC(=O)NC(CCCCNC(=O)[C@H](Cc1ccc2ccccc2c1)NC(=O)C1CCC2(CC1)CN(C(=O)CN1CCN(CC(=O)O)CCN(CC(=O)O)CCN(CC(=O)O)CC1)C2)C(=O)O)C(=O)O (stereo partly shown) [Compound E2]

pkD (pKD=−Log KD, binding affinity to PSMA protein) (PSMA protein): 9.82
SMILES: O=C(O)CC[C@H](NC(=O)N[C@@H](CCCCNC(=O)[C@H](Cc1ccc2ccccc2c1)NC(=O)c1ccc2cc(NC(=O)CN3CCN(CC(=O)O)CCN(CC(=O)O)CCN(CC(=O)O)CC3)ccc2c1)C(=O)O)C(=O)O [Compound E21]

pkD (pKD=−Log KD, binding affinity to PSMA protein) (PSMA protein): 10.00
SMILES: O=C(O)CC[C@H](NC(=O)N[C@@H](CCCCNC(=O)[C@H](Cc1ccc2ccccc2c1)NC(=O)C1CC2(C1)CN(C(=O)CN1CCN(CC(=O)O)CCN(CC(=O)O)CCN(CC(=O)O)CC1)C2)C(=O)O)C(=O)O [Compound E22]

Kd (PSMA protein): 0.282 nM
SMILES: O=C(O)CC[C@H](NC(=O)NC(CCCCNC(=O)[C@H](Cc1ccc2ccccc2c1)NC(=O)C1CCC2(CC1)CCN(C(=O)CN1CCN(CC(=O)O)CCN(CC(=O)O)CCN(CC(=O)O)CC1)CC2)C(=O)O)C(=O)O (stereo partly shown) [Compound E9]
